Measurements published in publication PMC6222706, “Evaluation of the Antioxidant and Neuroprotectant Activities of New Asymmetrical 1,3-Diketones” (Molecules : A Journal of Synthetic Chemistry and Natural …, 2018).
Values after ≈ are worked out from the molar mass of the structure shown.

Tests used:
[1] = ABTS radical scavenging assay; format: biochemical; conditions: for IC50: 30 min incubation, EtOH, absorbance at 734 nm; for ABTS-TEAC100: Trolox Equivalent Antioxidant Capacity vs 100 µM solution of the substance, from ABTS assay
Method: ABTS^+ radical was produced by reacting 2,2′-azino-bis-3-ethylbenzthiazoline-6-sulphonic acid (ABTS) 7 mM with K2S2O8 2.45 mM, both reactants dissolved in water, and at the volume ratio of 1:1. The mixture was stored in the dark at room temperature for 16 h. The ABTS^+ solution was diluted to give an absorbance of 0.750 ± 0.025 at 734 nm in EtOH. All the compounds tested were dissolved in EtOH. 150 µL of each compound solution was added to the wells of the 96-well plate, followed by the addition of 50 µL of the ABTS^+ radical solution. Final compound concentrations tested were 0, 5, 10, 20, 50, 100, 150, 200 µM. The absorbance change at 734 nm was recorded after 30 min incubation in the dark, and the percentage of radical scavenging was calculated for each concentration relative to a blank containing no scavenger. The degree of decolorization was calculated as the percentage reduction of absorbance. The ABTS^+ radical scavenging activity was calculated as follows: Percentage ABTS^+ radical scavenging activity = {1 − [As/Ac]} × 100(1) where As is the absorbance of the ABTS^+ radical solution containing samples and Ac the absorbance of the control solution without antioxidant. The percentages of ABTS^+ radical reduced were plotted against compound concentration. Trolox was used as a reference antioxidant. All the assays were carried out three times by quadruplicate for each compound.

[2] = Cytotoxicity in SH-SY5Y cells (MTT); format: cell-based; conditions: human, SH-SY5Y neuronal cells, concentration reducing cell viability to 50% of control
Method: So, to study the neuroprotectant potential of β-diketones in the SH-SY5Y cell line, we firstly need to determine their cytotoxicity in the same cellular model. […] In addition to that, within each series, the introduction of a second fluorine atom in the left-hand side phenyl ring decreases also the cytotoxicity.
SH-SY5Y cells were seeded into 96-well plates at a density of 5 × 10^3 cells/well and grown in the incubator for 24 h. All compounds tested were dissolved and eventually further diluted in dimethylsulfoxide (DMSO). After overnight incubation, the cells were treated with different test concentrations (5, 10, 20, 50, 100, 150, 200 µM) in a final volume of 200 µL with four replicates each. […] Cell proliferation or viability was measured using the 3-(4,5-dimethylthiazol-2-yl)-2,5-diphenyl tetrazolium bromide (MTT) assay. After 24 h, 20 µL of MTT (5 mg/mL) was added to each well and the plate was incubated at 37 °C in the dark for 2 h. Supernatants were removed and the formazan crystals were solubilized in DMSO (200 µL/well), under 10 min shaking at room temperature. The reduction of MTT was quantified by absorbance at 570 nm Varioskan microplate reader (Thermo Fisher Scientific, Vantaa, Finland). Effects of the test compounds on cell viability were calculated using cells treated with vehicle as control. The data were subjected to linear regression analysis and the regression lines were plotted for the best fit. The IC50 (inhibition of cell viability) concentrations were calculated using the respective dose-response curves.

[3] = FRAP (Ferric Reducing Antioxidant Power) assay; format: biochemical; conditions: for FRAP-TEAC100: Trolox Equivalent Antioxidant Capacity vs 100 µM solution of the substance, from FRAP assay; for FRAP Assay (%) at 100 µM / FRAP Assay (%) at 200 µM: 30 min, 593 nm
Method: The assay was carried out according to the method of Benzie et al. with slight modifications, in a 96-well microplate. FRAP reagent was prepared by mixing 10 mL of 300 mM acetate buffer with 1 mL of 10 mM 2,4,6-tripyridyl-S-triazine (TPTZ) in HCl 40 mM and 1mL of FeCl3·6H2O 20 mM. Firstly, 190 µL of the FRAP reagent were added to all wells of the 96-well plate, followed by the addition to the well of 10 µL of the test compounds dissolved in Ethanol to reach the final concentrations assayed (0, 5, 10, 20, 50, 100, 150, 200 µM). After 30 min incubation in the dark, the absorbance was read at 593 nm. Trolox was used as assay control. Three different assays were carried out by quadruplicate for each compound.

[4] = Chemical stability in 10 mM PBS; format: physicochemical; conditions: 6b, 7b at 400 µM, curcumin at 50 µM
Method: It is also important to know compound integrity at those concentrations used in biological assays, and for that, the chemical stability was determined in 10 mM PBS after 6 h, 24 h and 48 h.
(§1) In parallel compound saturation solutions were obtained and filtered from 20 mM compound stock in DMSO. So, 10 µL of 20 mM stock solution were dispensed to 190 µL of PBS 10 mM. The solutions were mixed, shaken in a microplate shaker for two hours, and then 160 µL of each solution were filtered and transferred to a new well plate for UV absorption measure. The compound stability in PBS 10 mM was determined at 24, 48 and 72 h with solutions prepared as those for the compound calibration curve.

SH-SY5Y cells [5] = assay: SH-SY5Y neuroprotection assay against H2O2 (MTT); format: cell-based, human; conditions: compound 5-50 µM for 24 h, then 200 µM H2O2 for 24 h
Method: For neuroprotection experiments, SH-SY5Y cells were treated with test compound at different concentrations (5, 10, 20, 30, 40, and 50 µM) for 24 h. After the incubation period, cells were exposed to H2O2 200 µM for 24 h. At the end of the treatment, cell viability was measure with MTT.
Compound neuroprotection under H2O2-induced oxidative stress was assessed by MTT assay. Briefly, SH-SY5Y were seeded into 96-well plates at a density of 3 × 10^3 cells/well and grown in the incubator for 24 h. Cells were pretreated for 24 h with different compound concentrations (5, 10, 20, 30, 40, 50 µM). After the treatment period, cells were exposed to 200 µM H2O2 for 24 h. Cell viability was measured with MTT following the same procedure described above. Cell viability was expressed as the percentage of the control value (cells without treatment with H2O2).

[6] = Kinetic solubility by UV spectrometry in 10 mM PBS; format: physicochemical; conditions: 10 mM phosphate buffered saline, aqueous buffer, kinetic from dmso stock
Method: Among the most important physicochemical parameters in drug-discovery, solubility and chemical stability in aqueous media are the determinants for non-toxic and brain-permeable drug-like compounds with good bioavailability. So, compounds with good aqueous solubility are the best candidates for drug-discovery progression. […] The assays were performed at room temperature, in 10 mM Phosphate Buffered Saline (PBS) from compound stocks in DMSO at 20 mM concentration.
A modified protocol was used from that described by Hoelke et al. for the determination of the kinetic solubility from DMSO compound solutions. A compound calibration curve (compound concentration vs. UV absorption) was prepared on a 48 well plate for each compound with concentrations in the range of 10 µM to […]. Each compound dilution was carried out by pipetting defined volumes of a 20 mM stock compound solution in DMSO into the wells and adding PBS 10 mM to reach a final volume of 500 µL/well. The final amount of DMSO per well was 2%. For the lower compound concentrations, an additional volume of DMSO was added into each well to reach the 2% of DMSO. Then, 200 µL of each dilution was transferred to a new 96 well plate for the measurement of the UV-spectra. One well in each row was left without compound as a blank and its UV absorbance was used as an offset correction. The experiments were carried out by duplicate.
as §1
Measurement of the UV-spectra was performed using a Varioskan microplate reader and spectra were taken in the range of 270–600 nm. Spectral bandwidth was set to 5 nm and the data pint interval was 10 nm. […]

[7] = DPPH radical scavenging assay; format: biochemical; conditions: antioxidant concentration that decreases initial DPPH^• concentration by 50%; 30 min, 517 nm
Method: The assay was performed in a 96-well microplate. A 0.2 mM solution of 2,2-diphenyl-1-picryl-hydrazyl-hydrate (DPPH) in ethanol was prepared. All the compounds tested were dissolved in EtOH. Firstly, 150 µL of each compound solution was added to the wells of the 96-well plate, followed by the addition of 50 µL of the DPPH solution. Final compound concentrations tested were 0, 5, 10, 20, 50, 100, 150, 200 µM. The change in absorbance at 517 nm was measured after 30 min incubation in the dark. The free radical scavenging activity was calculated as inhibition using the following Equation (2): Percentage DPPH radical scavenging activity = {1 − [As/Ac]} × 100(2) where As is the absorbance of the DPPH solution containing samples and Ac the absorbance of the control solution without antioxidant but with DPPH. The percentages of DPPH reduced were plotted against compound concentration. The experiment was also conducted using Trolox as reference antioxidant. Assays were performed three times by quadruplicate for each compound.

SH-SY5Y cells [8] = assay: Mitochondrial membrane potential (JC-1, microplate reader) in SH-SY5Y cells under H2O2; format: cell-based, human; conditions: SH-SY5Y exposed to 200 µM H2O2 for 24 h, no compound
Method: To know whether β-diketones 6b and 7b will protect the mitochondrial membrane from depolarization under oxidative stress conditions, MMP experiments were carried out with the cationic dye JC-1 (5,5′,6,6′-tetrachloro-1,1′,3,3′-tetraethylbenzimi-dazolylcarbocyanine iodide). JC-1 enters selectively into mitochondria and reversibly change color from red to green as the membrane potential decrease. In healthy cells, JC-1 forms red fluorescent J-aggregates while in apoptotic cells with low MMP, JC-1 remains as monomers with green fluorescence. The ratio of J-aggregates to J-monomers is an indication of healthy non-apoptotic cells.
The fluorescent dye 5,5′,6,6′-tetrachloro-1,1′,3,3′-tetraethylbenzimidazolylcarbocyanine iodide (JC-1) was used for measuring MMP [111]. A decrease in fluorescence intensity represents mitochondrial membrane depolarization. For fluorescence ratio detection under oxidative stress conditions, 96 well plates were seeded with 3 × 10^3 SH-SY5Y cells and after 24 h incubation they were treated with test compound and left out for 24 h. Then, cells were exposed to different H2O2 concentrations for 24 h. After the incubation period, cells were washed twice with Hanks buffer and then stained with 5 µM JC-1 in culture media in dark, in a CO2 incubator at 37 °C for 20 min. At the end of the dye incubation period, cells were washed three times with Hanks buffer and 200 µL of fresh buffer was added. Cells were analyzed with a Varioskan microplate reader. J-aggregates red fluorescence intensity was measured at 535 nm excitation and 595 nm emission wavelength, while excitation at 485 nm and emission 535 nm wavelength was used for J-monomers green fluorescence. Results were expressed as the ratio of fluorescence intensity of J-aggregates to J-monomers. […] JC-1 aggregates show red fluorescence (peak emission at 590 nm) measured in the FL2 channel. Thus, healthy non-apoptotic cells are detected in both FL1 and FL2 channels, while cells with disrupted mitochondrial function show fluorescence in FL1 channel but reduced FL2 intensity.

SH-SY5Y cells [9] = assay: Mitochondrial membrane potential by flow cytometry (JC-1) in SH-SY5Y cells under H2O2; format: cell-based, human; conditions: 400 µM H2O2, no compound
Method: To confirm this MMP recovery results, flow cytometry experiments were carried out with compound 7b and SH-SY5Y cells. Cells were treated with 7b for 24 h and then were exposed to 400 µM H2O2 for 4 h. JC-1 was used as fluorescence indicator of MMP state. In flow cytometry studies of MMP, JC-1 is excited at 488 nm wavelength. Both JC-1 aggregates and monomers show green fluorescence (peak emission at 527 nm) measured in the FL1 channel. […] Thus, healthy non-apoptotic cells are detected in both FL1 and FL2 channels, while cells with disrupted mitochondrial function show fluorescence in FL1 channel but reduced FL2 intensity. […] From these flow cytometry experiments, we can confirm that after compound 7b treatment there is a significant MMP recovery in SH-SY5Y cells under oxidative stress pressure.
For MMP flow cytometry studies, 10^5 SH-SY5Y cells were seeded in 6 well plates. After 24 h, cells were treated with test compound and incubated for other 24 h. After the treatment period, cells were exposed to H2O2 for 4 h. Then, cells were washed twice with Hanks buffer and stained with 5 µM JC-1 in culture media in dark, in a CO2 incubator at 37 °C for 20 min. After the staining period, cells were washed three times with Hanks buffer, collected and resuspended in 500 µL culture media. Data were obtained and analyzed using an Accuri C6 flow cytometer (BD Biosciences, Ann Arbour, MI, USA). […]

SH-SY5Y cells [10] = conditions: read-out: H2O2 lethal dose (EC50; LD50), 24 h incubation, cell viability 50% of the control
Method: To test our work hypothesis, neuroprotection studies were carried out with β-diketones 6b and 7b in the SH-SY5Y cell line under oxidative stress conditions.

| SMILES | IC50 [1] | ABTS-TEAC100 [1] | melting point | IC50 at 24 h [2] | FRAP-TEAC100 [3] | FRAP Assay (%) at 100 µM [3] | FRAP Assay (%) at 200 µM [3] | Remaining Compound (%) 0 h ([4]; 0 h) | Remaining Compound (%) 6 h ([4]; 6 h) | Remaining Compound (%) 24 h ([4]; 24 h) | Remaining Compound (%) 48 h ([4]; 48 h) | Cell viability after H2O2 (neuroprotection) (SH-SY5Y cells [5]) | solubility at 2 h [6] | IC50 [7] | MMP reduction (SH-SY5Y cells [8]) | Increase in the FLA-1/FLA-2 ratio (SH-SY5Y cells [9]) | EC50 (SH-SY5Y cells [10]) |
| --- | --- | --- | --- | --- | --- | --- | --- | --- | --- | --- | --- | --- | --- | --- | --- | --- | --- |
| O=C(/C=C(O)/C=C/c1ccc(O)c(F)c1F)c1ccccc1 [Compound 7a, (2Z,4E)-5-(2,3-Difluoro-4-hydroxyphenyl)-3-hydroxy-1-phenylpenta-2,4-dien-1-one] | 79.6 ± 4.3 µM | 0.69 | 179.3 °C | 126 ± 8 µM | 0.22 | 14.0% | 20.7% | – | – | – | – | – | – | – | – | – | – |
| COc1cc(/C=C/C(=O)CC(=O)/C=C/c2ccc(O)c(OC)c2)ccc1O [Curcumin, reference compound] | – | – | – | 48.8 ± 5.1 µM | – | – | – | 100% | 55.9 ± 10.6% | 42.9 ± 9.0% | 38.1 ± 7.4% | slight protection | 24 ± 3 µg/mL (≈ 65.1 µM) | – | – | – | – |
| COc1cc(/C=C/C(O)=C/C(=O)c2ccccc2)ccc1O [Compound 1a, (2Z,4E)-3-Hydroxy-5-(4-hydroxy-3-methoxyphenyl)-1-phenylpenta-2,4-dien-1-one] | 50.5 ± 2 µM | 0.88 | 159.9 °C | 104 ± 6.7 µM | 0.59 | 32.2% | 55.7% | – | – | – | – | – | – | 42.3 ± 3.4 µM | – | – | – |
| OO [Compound H2O2, hydrogen peroxide, reference compound] | – | – | – | – | – | – | – | – | – | – | – | – | – | – | about 62% | 2 fold | 200 µM |
